Measured values published in patent publication US9469645B2, “Compounds and compositions for the treatment of parasitic diseases” (Novartis AG, priority 2009, dated 2016).

Columns and labels:
W2 strain = assay: parasite proliferation assay in infected red blood cells (SYBR Green I), W2 strain; assay type: cell-based, Plasmodium falciparum; conditions: Plasmodium falciparum, Erythrocyte
Text: Compounds of the invention can be assayed to measure their capacity to inhibit proliferation of parasitemia in infected red blood cells. The proliferation is quantified by the addition of SYBR Green I (INVITROGEN)® dye which has a high affinity for double stranded DNA.

3D7 P. falciparum strain = assay: parasite proliferation assay in infected red blood cells (SYBR Green I); assay type: cell-based, Plasmodium falciparum; conditions: Plasmodium falciparum, 3D7, Erythrocyte, 3D7 strain; read-out: EC50 3D7 strain
Outline: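 P. falciparum 3D7 grown in O+ human erythrocytes to 3–8% parasitemia and exposed to compounds. Proliferation read as the increase in parasite DNA. Detection used SYBR Green I in saponin/triton-X/EDTA lysis buffer, with overnight lysis at room temperature.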

SMILES | EC50 (W2 strain) | EC50 (3D7 P. falciparum strain)
N[C@@H](CC1CCC1)C(=O)N1CCn2c(nc(-c3ccc(F)cc3)c2Nc2ccc(Cl)cc2)C1 [Compound 452] | 19 nM | 20 nM
CC(C)C[C@H](N)C(=O)N1CCn2c(nc(-c3ccc(F)cc3)c2Nc2ccc(Cl)cc2)C1 [Compound 453] | 21 nM | 20 nM
CC[C@H](C)[C@H](N)C(=O)N1CCn2c(nc(-c3ccc(F)cc3)c2Nc2ccc(Cl)cc2)C1 [Compound 454] | 8 nM | 20 nM
CC(C)[C@H](O)C(=O)N1CCn2c(nc(-c3ccc(F)cc3)c2Nc2ccc(Cl)cc2)C1 [Compound 455] | 8 nM | 10 nM
CC(C)[C@@H](O)C(=O)N1CCn2c(nc(-c3ccc(F)cc3)c2Nc2ccc(Cl)cc2)C1 [Compound 456] | 15 nM | 20 nM
N[C@H](C(=O)N1CCn2c(nc(-c3ccc(F)cc3)c2Nc2ccc(Cl)cc2)C1)c1ccc(F)cc1 [Compound 457] | 11 nM | 20 nM
N[C@@H](Cc1ccc(F)cc1)C(=O)N1CCn2c(nc(-c3ccc(F)cc3)c2Nc2ccc(Cl)cc2)C1 [Compound 458] | 17 nM | 20 nM
Cc1ccc(C[C@H](N)C(=O)N2CCn3c(nc(-c4ccc(F)cc4)c3Nc3ccc(Cl)cc3)C2)cc1 [Compound 459] | 24 nM | 40 nM
N[C@@H](Cc1ccc(F)c(F)c1)C(=O)N1CCn2c(nc(-c3ccc(F)cc3)c2Nc2ccc(Cl)cc2)C1 [Compound 460] | 33 nM | 40 nM
N[C@@H](Cc1cscn1)C(=O)N1CCn2c(nc(-c3ccc(F)cc3)c2Nc2ccc(Cl)cc2)C1 [Compound 461] | 22 nM | 30 nM
O=C([C@@H]1CCN1)N1CCn2c(nc(-c3ccc(F)cc3)c2Nc2ccc(Cl)cc2)C1 [Compound 462] | 37 nM | 50 nM
CC(C)(C)[C@H](N)C(=O)N1CCn2c(nc(-c3ccc(F)cc3)c2Nc2ccc(Cl)cc2)C1 [Compound 463] | 24 nM | 40 nM
CC(C)[C@H](N)C(=O)N1CCn2c(nc(-c3ccc(F)cc3)c2Nc2ccc(F)cc2)C1 [Compound 464] | 24 nM | 30 nM
N[C@H](C(=O)N1CCn2c(nc(-c3ccc(F)cc3)c2Nc2ccc(F)cc2)C1)C1CC1 [Compound 465] | 2 nM | 1.9 nM
N[C@@H](CC1CCC1)C(=O)N1CCn2c(nc(-c3ccc(F)cc3)c2Nc2ccc(F)cc2)C1 [Compound 467] | 16 nM | 20 nM
CC(C)C[C@H](N)C(=O)N1CCn2c(nc(-c3ccc(F)cc3)c2Nc2ccc(F)cc2)C1 [Compound 468] | 20 nM | 30 nM
CC[C@H](C)[C@H](N)C(=O)N1CCn2c(nc(-c3ccc(F)cc3)c2Nc2ccc(F)cc2)C1 [Compound 469] | 16 nM | 20 nM
CC(C)[C@H](O)C(=O)N1CCn2c(nc(-c3ccc(F)cc3)c2Nc2ccc(F)cc2)C1 [Compound 470] | 12 nM | 10 nM
CC(C)[C@@H](O)C(=O)N1CCn2c(nc(-c3ccc(F)cc3)c2Nc2ccc(F)cc2)C1 [Compound 471] | 30 nM | 30 nM
N[C@H](C(=O)N1CCn2c(nc(-c3ccc(F)cc3)c2Nc2ccc(F)cc2)C1)c1ccc(F)cc1 [Compound 472] | 37 nM | 50 nM
N[C@@H](Cc1ccc(F)cc1)C(=O)N1CCn2c(nc(-c3ccc(F)cc3)c2Nc2ccc(F)cc2)C1 [Compound 473] | 21 nM | 30 nM
Cc1ccc(C[C@H](N)C(=O)N2CCn3c(nc(-c4ccc(F)cc4)c3Nc3ccc(F)cc3)C2)cc1 [Compound 474] | 88 nM | 130 nM
N[C@@H](Cc1ccc(F)c(F)c1)C(=O)N1CCn2c(nc(-c3ccc(F)cc3)c2Nc2ccc(F)cc2)C1 [Compound 475] | 30 nM | 40 nM
N[C@@H](Cc1cscn1)C(=O)N1CCn2c(nc(-c3ccc(F)cc3)c2Nc2ccc(F)cc2)C1 [Compound 476] | 27 nM | 40 nM
